Activity calls are given as the source filed them. The rule behind the calls is not given here.

Data set [1] concerns HepG2. Nature of the data set: Induction of apoptosis in human HepG2 cells assessed as increase in cleaved caspase-3 expression at 1.25 to 20 uM measured after 48 hrs by Western blot analysis. As to conditions: dose 1.25-20 µM. It is filed as functional, cell-based. For orientation: Immunoblotting shows a protein as a band on a membrane.
Data set [2] deals with HepG2. Nature of the data set: Induction of apoptosis in human HepG2 cells assessed as increase in cleaved caspase-9 expression at 1.25 to 20 uM measured after 48 hrs by Western blot analysis. It is filed as functional, cell-based. As to conditions: dose 1.25-20 µM.
Data set [3] has as its system HepG2. Nature of the data set: Cell cycle arrest in human HepG2 cells assessed as accumulation at G2/M phase at 2.5 uM measured after 48 hrs by propidium iodide staining based flow cytometry (reference value: 12.37%). The class given is functional. Background: Flow cytometry measures light scatter and fluorescence of single cells or particles in a stream.
The next data set has as its system HeLa. Nature of the data set: Antiproliferative activity against human HeLa cells measured after 72 hrs by MTT assay. The class given is functional, cell-based.
In data set [4] the test system is HepG2. Nature of the data set: Induction of apoptosis in human HepG2 cells assessed as late apoptotic cells at 2.5 uM measured after 48 hrs by Annexin V-FITC/propidium iodide staining based flow cytometry (reference value: 4.55%). The class given is functional.
In data set [5] the test system is HepG2. Nature of the data set: Induction of apoptosis in human HepG2 cells assessed as viable cells at 2.5 uM measured after 48 hrs by Annexin V-FITC/propidium iodide staining based flow cytometry (reference value: 88.58%). It is filed as functional. As to conditions: read-out: Activity.
The test system of data set [6] is HepG2. Nature of the data set: Cell cycle arrest in human HepG2 cells assessed as accumulation at S phase at 10 uM measured after 48 hrs by propidium iodide staining based flow cytometry (reference value: 32.39%). The class given is functional.
The target of data set [7] is Histone deacetylase (Homo sapiens) (UniProt Q13547+O15379+Q9UBN7+Q92769+Q9UQL6+Q8WUI4+Q9BY41+Q96DB2+P56524+Q9UKV0+Q969S8). Nature of the data set: Inhibition of HDAC in human HepG2 cells assessed as increase in Ac-H3K9 expression at 1.25 to 20 uM measured after 24 hrs by Western blot analysis. The class given is cell-based. As to conditions: dose 1.25-20 µM.
The nature of data set [8]: Metabolic stability in rat liver microsomes assessed as parent compound remaining at 1 uM measured after 45 mins by LC-MS/MS analysis. The class given is ADME, Microsome. As to conditions: read-out: Stability.
Data set [9] relates to HepG2. Nature of the data set: Cell cycle arrest in human HepG2 cells assessed as accumulation at G2/M phase at 10 uM measured after 48 hrs by propidium iodide staining based flow cytometry (reference value: 12.37%). The class given is functional.
A further data set deals with HT-29. Nature of the data set: Antiproliferative activity against human HT-29 cells measured after 72 hrs by MTT assay. The class given is functional, cell-based. As to conditions: HT-29, 72 h. On the technique in general: Formazan colour is commonly taken as a measure of viable cells.
In data set [10] the test system is HepG2. Nature of the data set: Induction of apoptosis in human HepG2 cells assessed as early apoptotic cells at 2.5 uM measured after 48 hrs by Annexin V-FITC/propidium iodide staining based flow cytometry (reference value: 6.87%). The class given is functional.
Data set [11] in a line: Intrinsic clearance in rat liver microsomes at 1 uM by LC-MS/MS analysis. The class given is ADME, Microsome. As to conditions: read-out: CLH.
Data set [12] deals with HepG2. Nature of the data set: Cell cycle arrest in human HepG2 cells assessed as accumulation at G2/M phase at 5 uM measured after 48 hrs by propidium iodide staining based flow cytometry (reference value: 12.37%). The class given is functional.
The nature of data set [13]: Metabolic stability in rat liver microsomes assessed as parent compound remaining at 1 uM measured after 5 mins by LC-MS/MS analysis. It is filed as ADME, Microsome. As to conditions: read-out: Stability.
Data set [14] is described as follows: Metabolic stability in rat liver microsomes assessed as parent compound remaining at 1 uM measured after 15 mins by LC-MS/MS analysis. The class given is ADME, Microsome. As to conditions: read-out: Stability.
Data set [15] relates to HepG2. Nature of the data set: Induction of apoptosis in human HepG2 cells assessed as early apoptotic cells at 5 uM measured after 48 hrs by Annexin V-FITC/propidium iodide staining based flow cytometry (reference value: 6.87%). It is filed as functional.
For data set [16], the system named is HepG2. Nature of the data set: Cell cycle arrest in human HepG2 cells assessed as accumulation at S phase at 5 uM measured after 48 hrs by propidium iodide staining based flow cytometry (reference value: 32.39%). The class given is functional.
Data set [17] deals with HepG2. Nature of the data set: Antiinvasive activity against human HepG2 cells at 20 uM measured after 24 hrs by trans-well assay. It is filed as functional, cell-based. As to conditions: DDE = dose-dependent effect.
Data set [18] deals with HepG2. Nature of the data set: Induction of apoptosis in human HepG2 cells assessed as early apoptotic cells at 1.25 uM measured after 48 hrs by Annexin V-FITC/propidium iodide staining based flow cytometry (reference value: 6.87%). It is filed as functional.
Data set [19] relates to HepG2. Nature of the data set: Induction of apoptosis in human HepG2 cells assessed as late apoptotic cells at 10 uM measured after 48 hrs by Annexin V-FITC/propidium iodide staining based flow cytometry (reference value: 4.55%). It is filed as functional.
Data set [20] relates to HepG2. Nature of the data set: Induction of apoptosis in human HepG2 cells assessed as necrotic cells at 1.25 uM measured after 48 hrs by Annexin V-FITC/propidium iodide staining based flow cytometry (reference value: 0%). The class given is functional.
The subject of data set [21] is HepG2. Nature of the data set: Induction of apoptosis in human HepG2 cells assessed as necrotic cells at 20 uM measured after 48 hrs by Annexin V-FITC/propidium iodide staining based flow cytometry (reference value: 0%). The class given is functional.
Data set [22] deals with HepG2. Nature of the data set: Induction of apoptosis in human HepG2 cells assessed as increase in cleaved PARP expression at 1.25 to 20 uM measured after 48 hrs by Western blot analysis. The class given is functional, cell-based. As to conditions: dose 1.25-20 µM.

As usually defined, the IC50 is the concentration that gives 50% inhibition. A higher IC50 goes with weaker potency in that assay. Consider `COc1cc2nc(N3CCN(CCCCCC(=O)NO)CC3)nc(NC3CCN(Cc4ccccc4)CC3)c2cc1OC`, for which the outcome in the data set with HepG2 [1], in the data set with HepG2 [2] and in the data set with HepG2 [22] was Active. Besides, the Activity with HepG2 [3] is given as 13.29%; with HepG2 [4] it was 2.27%; in the data set with HepG2 [6], 24.67%; in the data set with HepG2 [9], 15.52%; in the data set on HepG2 [10] it was 10.22%; in the data set on HepG2 [12], 13.12%. The Activity with HepG2 [15] is 8.59%; in the data set with HepG2 [16], 28.81%; in the data set on HepG2 [17] it was “Dde”; in the data set on HepG2 [18] it was 8.83%; in the data set on HepG2 [19], 6.17%; with HepG2 [20], 0%. Moreover, the Activity in the data set with HepG2 [21] stood at 0%. Also, the IC50 in the data set with HeLa worked out at 3.34 µM; with HT-29 it was 6.99 µM. In the data set on HepG2 [5], the viability at 2.5 µM came to 87.5%. Moreover, in data set [7], the inhibition entry is “Active”. In data set [8], the remaining at 0.75 h, 1 µM was 14.2%. Besides, in data set [11], the CLint scaled at 1 µM was 155 mL/min/kg. Moreover, the remaining at 5 min, 1 µM in data set [13] came to 81.1%. Further, in data set [14], the remaining at 0.25 h, 1 µM is 50.2%.

Values taken from ChEMBL document CHEMBL5143537, “Quinazoline-based hydroxamic acid derivatives as dual histone methylation and deacetylation inhibitors for potential anticancer agents” (Bioorg Med Chem, 2022).
